From US8431615B2, “Dose forms” (priority 2004, dated 2013)

Experiments:
neopterin = assay: Multiple-dose 14-day study, serum neopterin (competitive ELISA); conditions: 750 mg q8h, day 14; baseline 10.48±0.84 nmol/l; ULN 7.7 nmol/l
HCV genotype 1 = assay: Multiple-dose 14-day study, plasma HCV RNA (Roche COBAS TaqMan HCV/HPS assay); assay type: in vivo, human
Source text: Detection of HCV RNA was done using the Roche COBAS TaqMan HCV/HPS assay, available from Roche molecular Diagnostics. Other assays are available.

IFN-β promoter activity = assay: IFN-β promoter luciferase activity in Sendai virus stimulated Huh7 cells expressing HCV protease; conditions: 10 μM VX-950, Sendai virus infected Huh7 cells, WT HCV protease
[1] = Predicted human liver exposures versus replicon assay IC50/IC90; conditions: dose range studied
Source text: Liver exposures to VX-950 were predicted based on the integrated preclinical and clinical data.

[2] = in vivo
[3] = test system: ALT (alanine aminotransferase); assay: Multiple-dose 14-day study, serum ALT; conditions: 450 mg q8h, day 12; 5 out of 10 samples missing
HCV NS3/4A protease = HCV NS3/4A protease (Hepatitis C virus genotype 1a, UniProt P27958); assay: In vitro cleavage of TRIF by HCV NS3/4A protease; assay type: biochemical; conditions: 10 μM VX-950, tNS3 protease 0-4 μM
Chain of HCV NS3/4A protease (P27958 1027-1208, other chains not shown): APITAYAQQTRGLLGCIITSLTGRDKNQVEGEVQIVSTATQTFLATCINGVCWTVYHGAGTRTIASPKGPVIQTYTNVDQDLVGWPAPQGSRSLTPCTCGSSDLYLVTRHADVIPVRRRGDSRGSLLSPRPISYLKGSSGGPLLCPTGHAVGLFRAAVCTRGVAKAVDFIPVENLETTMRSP
Procedure: The 35S methionine labeled coupled in vitro transcription/translation product of TRIF protein (as a substrate) was incubated with increasing concentration of tNS3 protease enzyme ranging from 0-4 μM either in the presence (Circles) or absence (Squares) of 10 μM VX-950, followed by SDS-PAGE and exposure to phosphorimager.

[4] = test system: AST (aspartate aminotransferase); assay: Multiple-dose 14-day study, AST; assay type: in vivo, human; conditions: upon administration of VX-950
WT-HCV protease-SEAP = conditions: SCID mice expressing WT-HCV protease-SEAP; cited from earlier work

CCC[C@H](NC(=O)[C@@H]1[C@H]2CCC[C@H]2CN1C(=O)[C@@H](NC(=O)[C@@H](NC(=O)c1cnccn1)C1CCCCC1)C(C)(C)C)C(=O)C(=O)NC1CC1 [VX-950]
mean neopterin (neopterin): 7.32 ± 0.48 nmol/L
Maximum change from baseline in HCV RNA (log10 IU/mL), subjects in category (HCV genotype 1; category >−1 to <0, 450 mg q8 h (n = 10)): 0 n
Maximum change from baseline in HCV RNA (log10 IU/mL), subjects in category (HCV genotype 1; category >−1 to <0, 750 mg q8 h (n = 8)): 0 n
Maximum change from baseline in HCV RNA (log10 IU/mL), subjects in category (HCV genotype 1; category >−1 to <0, 1250 mg q12 h (n = 10)): 0 n
Maximum change from baseline in HCV RNA (log10 IU/mL), subjects in category (HCV genotype 1; category >−2 to ≦−1, 450 mg q8 h (n = 10)): 0 n
Maximum change from baseline in HCV RNA (log10 IU/mL), subjects in category (HCV genotype 1; category >−2 to ≦−1, 750 mg q8 h (n = 8)): 0 n
Maximum change from baseline in HCV RNA (log10 IU/mL), subjects in category (HCV genotype 1; category >−2 to ≦−1, 1250 mg q12 h (n = 10)): 0 n
Maximum change from baseline in HCV RNA (log10 IU/mL), subjects in category (HCV genotype 1; category >−3 to ≦−2, 450 mg q8 h (n = 10)): 1 n
Maximum change from baseline in HCV RNA (log10 IU/mL), subjects in category (HCV genotype 1; category >−3 to ≦−2, 750 mg q8 h (n = 8)): 0 n
Maximum change from baseline in HCV RNA (log10 IU/mL), subjects in category (HCV genotype 1; category >−3 to ≦−2, 1250 mg q12 h (n = 10)): 1 n
Maximum change from baseline in HCV RNA (log10 IU/mL), subjects in category (HCV genotype 1; category >−4 to ≦−3, 450 mg q8 h (n = 10)): 7 n
Maximum change from baseline in HCV RNA (log10 IU/mL), subjects in category (HCV genotype 1; category >−4 to ≦−3, 750 mg q8 h (n = 8)): 3 n
Maximum change from baseline in HCV RNA (log10 IU/mL), subjects in category (HCV genotype 1; category >−4 to ≦−3, 1250 mg q12 h (n = 10)): 9 n
Maximum change from baseline in HCV RNA (log10 IU/mL), subjects in category (HCV genotype 1; category >−5 to ≦−4, 450 mg q8 h (n = 10)): 0 n
Maximum change from baseline in HCV RNA (log10 IU/mL), subjects in category (HCV genotype 1; category >−5 to ≦−4, 750 mg q8 h (n = 8)): 3 n
Maximum change from baseline in HCV RNA (log10 IU/mL), subjects in category (HCV genotype 1; category >−5 to ≦−4, 1250 mg q12 h (n = 10)): 0 n
Maximum change from baseline in HCV RNA (log10 IU/mL), subjects in category (HCV genotype 1; category ≧−5, 450 mg q8 h (n = 10)): 2 n
Maximum change from baseline in HCV RNA (log10 IU/mL), subjects in category (HCV genotype 1; category ≧−5, 750 mg q8 h (n = 8)): 2 n
Maximum change from baseline in HCV RNA (log10 IU/mL), subjects in category (HCV genotype 1; category ≧−5, 1250 mg q12 h (n = 10)): 0 n
drop in viral load, every patient (HCV genotype 1; during administration, all dose groups): > 2 log10
subjects with a 3 log10 reduction in HCV-RNA (HCV genotype 1; within the first three days, of the 28 subjects receiving VX-950): 26
effect on IFNβ dependent gene expression (IFN-β promoter activity): restores IFNβ dependent gene expression
predicted average liver concentration as multiple of the replicon assay IC50 [1]: up to 113 fold
predicted average liver concentration as multiple of the replicon assay IC90 [1]: up to 57 fold
severe (grade 3 or grade 4) adverse events [2]: No adverse events were considered to be severe
ALT level, median [3]: 38 U/l
ALT level, range [3]: 25-125 U/l
effect on in vitro cleavage of TRIF (HCV NS3/4A protease): inhibits in vitro cleavage of TRIF
effect on AST levels [4]: decreased
effect on elevated ALT levels in animal model (WT-HCV protease-SEAP): ameliorates elevated ALT levels
